Measurements reported in US20080249077A1, “17.Beta.-Fluoromethoxycarbonyl-Androst-4-En-3-One Compounds With a 17.Alpha.-Carbonate Sustituent” (priority 2005, published 2008).

Legend:
glucocorticoid receptor [1] = target: T1, glucocorticoid receptor (Homo sapiens, UniProt P04150); test: Assay for transrepression activity of the glucocorticoid agonists (NF-κB responsive ELAM promoter-sPAP reporter, TNF-stimulated A549 cells); assay type: cell-based; details: compound 1 hour at 37° C., then TNF 10 ng/ml for 16 hours, read-out: pIC50 (transrepression) (converted)
T1 construct: A549 cells stably transfected with a reporter gene; endogenous in cells; host or cells: A549 cells
T1 sequence (P04150 1-777): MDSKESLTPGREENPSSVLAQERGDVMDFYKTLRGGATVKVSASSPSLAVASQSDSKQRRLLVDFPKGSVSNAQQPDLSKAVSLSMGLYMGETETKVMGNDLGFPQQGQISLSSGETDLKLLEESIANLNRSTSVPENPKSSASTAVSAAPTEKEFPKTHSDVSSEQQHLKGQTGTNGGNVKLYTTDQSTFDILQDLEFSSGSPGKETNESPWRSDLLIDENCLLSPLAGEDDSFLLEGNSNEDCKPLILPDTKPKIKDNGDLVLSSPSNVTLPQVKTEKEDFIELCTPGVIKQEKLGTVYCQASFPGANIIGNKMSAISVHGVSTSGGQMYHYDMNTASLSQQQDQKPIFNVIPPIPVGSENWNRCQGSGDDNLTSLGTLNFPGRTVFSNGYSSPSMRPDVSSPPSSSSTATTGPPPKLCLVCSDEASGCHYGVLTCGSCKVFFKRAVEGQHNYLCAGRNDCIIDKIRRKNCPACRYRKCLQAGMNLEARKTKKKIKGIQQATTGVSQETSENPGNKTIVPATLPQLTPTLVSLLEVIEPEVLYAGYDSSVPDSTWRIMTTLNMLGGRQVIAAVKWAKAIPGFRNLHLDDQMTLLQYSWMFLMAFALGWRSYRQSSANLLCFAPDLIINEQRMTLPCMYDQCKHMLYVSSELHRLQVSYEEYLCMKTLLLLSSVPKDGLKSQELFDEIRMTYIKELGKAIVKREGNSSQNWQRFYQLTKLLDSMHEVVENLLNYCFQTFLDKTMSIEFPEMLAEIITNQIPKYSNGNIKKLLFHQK
Experimental: Assay for Transrepression Activity of the Glucocorticoid Agonists
A549 cells stably transfected with a reporter gene containing the NF-κB responsive elements from the ELAM gene promoter coupled to sPAP (secreted alkaline phosphatase) are treated with test compounds at appropriate doses for 1 hour at 37° C. The cells are then stimulated with tumour necrosis factor (TNF, 10 ng/ml) for 16 hours, at which time the amount of alkaline phosphatase produced is measured by a standard colourimetric assay. Dose response curves were constructed from which EC50 values were estimated.

glucocorticoid receptor [2] = target: T1, glucocorticoid receptor; test: Assay for transactivation activity of the glucocorticoid agonists (MMTV-LTR renilla luciferase reporter in A549 cells); assay type: cell-based; details: compound 6 hour at 37° C., read-out: maximal response relative to Dexamethasone (100%) (transactivation)
Experimental: Assay for Transactivation Activity of the Glucocorticoid Agonists
The functional assay based on that described by R. J. H. Austin et al., Eur Resp J. (2002), 20, 1386-1392 measures the ability of compounds to directly transactivate gene expression. A549 cells stably transfected with a reporter gene containing the glucocorticoid responsive region of the mouse mammary tumour virus long terminal repeat (MMTV-LTR) coupled to renilla luciferase were treated with test compounds at appropriate doses for 6 hour at 37° C. The amount of luciferase activity present within the cells is then determined by measuring the light emitted following incubation with a suitable substrate. Dose response curves were constructed from which EC50 values were estimated and from which maximal responses are calculated relative to Dexamethasone (100%).

SMILES	IC50 (glucocorticoid receptor [1]) [nM]	Emax (glucocorticoid receptor [2]) [%]
CCC(CC)COC(=O)O[C@]1(C(=O)OCF)[C@H](C)C[C@H]2[C@@H]3C[C@H](F)C4=CC(=O)C=C[C@]4(C)[C@@]3(F)[C@@H](O)C[C@@]21C [Example 6, Fluoromethyl(6α,11β,16α,17α)-17-({[(2-ethylbutyl)oxy]carbonyl}oxy)-6,9-difluoro-11-hydroxy-16-methyl-3-oxoandrosta-1,4-diene-17-carboxylate]	< 0.1	< 25
C[C@@H]1C[C@H]2[C@@H]3C[C@H](F)C4=CC(=O)C=C[C@]4(C)[C@@]3(F)[C@@H](O)C[C@]2(C)[C@@]1(OC(=O)OC(C)(C)C)C(=O)OCF [Example 1, Fluoromethyl(6α,11β,16α,17α)-17-({[(1,1-dimethylethyl)oxy]carbony}oxy)-6,9-difluoro-11-hydroxy-16-methyl-3-oxoandrosta-1,4-diene-17-carboxylate]	< 0.1	< 25
CC(OC(=O)O[C@]1(C(=O)OCF)[C@H](C)C[C@H]2[C@@H]3C[C@H](F)C4=CC(=O)C=C[C@]4(C)[C@@]3(F)[C@@H](O)C[C@@]21C)C1CCCC1 (stereo partly drawn) [Example 21A, Fluoromethyl(6α,11β,16α,17α)-17-({[(1-cyclopentylethyl)oxy]carbonyl}oxy)-6,9-difluoro-11-hydroxy-16-methyl-3-oxoandrosta-1,4-diene-17-carboxylate]	< 0.1	–
C[C@@H]1C[C@H]2[C@@H]3C[C@H](F)C4=CC(=O)C=C[C@]4(C)[C@@]3(F)[C@@H](O)C[C@]2(C)[C@@]1(OC(=O)OCC1CCCC1)C(=O)OCF [Example 15, Fluoromethyl(6α,11β,16α,17α)-17-({[(cyclopentylmethyl)oxy]carbonyl}oxy)-6,9-difluoro-11-hydroxy-16-methyl-3-oxoandrosta-1,4-diene-17-carboxylate]	< 0.1	< 25
C[C@@H]1C[C@H]2[C@@H]3C[C@H](F)C4=CC(=O)C=C[C@]4(C)[C@@]3(F)[C@@H](O)C[C@]2(C)[C@@]1(OC(=O)OC1CCCC(C)(C)C1)C(=O)OCF (single isomer, unassigned) [Example 19A, Fluoromethyl(6α,11β,16α,17α)-17-({[(3,3-dimethylcyclohexyl)oxy]carbonyl}oxy)-6,9-difluoro-11-hydroxy-16-methyl-3-oxoandrosta-1,4-diene-17-carboxylate]	< 0.1	–
CC(C)C1CCC(OC(=O)O[C@]2(C(=O)OCF)[C@H](C)C[C@H]3[C@@H]4C[C@H](F)C5=CC(=O)C=C[C@]5(C)[C@@]4(F)[C@@H](O)C[C@@]32C)CC1 (stereo partly drawn) [Example 11, Fluoromethyl(6α,11β,16α,17α)-6,9-difluoro-11-hydroxy-16-methyl-17-[({[4-(1-methylethyl)cyclohexyl]oxy}carbonyl)oxy]-3-oxoandrosta-1,4-diene-17-carboxylate]	–	< 25
CC(OC(=O)O[C@]1(C(=O)OCF)[C@H](C)C[C@H]2[C@@H]3C[C@H](F)C4=CC(=O)C=C[C@]4(C)[C@@]3(F)[C@@H](O)C[C@@]21C)C1CCCC1 (stereo partly drawn) [Example 21, Fluoromethyl(6α,11β,16α,17α)-17-({[(1-cyclopentylethyl)oxy]carbonyl}oxy)-6,9-difluoro-11-hydroxy-16-methyl-3-oxoandrosta-1,4-diene-17-carboxylate]	–	< 25
CC(C)C(C)OC(=O)O[C@]1(C(=O)OCF)[C@H](C)C[C@H]2[C@@H]3C[C@H](F)C4=CC(=O)C=C[C@]4(C)[C@@]3(F)[C@@H](O)C[C@@]21C (stereo partly drawn) [Example 9, Fluoromethyl(6α,11β,16α,17α)-17-({[(1,2-dimethylpropyl)oxy]carbonyl}oxy)-6,9-difluoro-11-hydroxy-16-methyl-3-oxoandrosta-1,4-diene-17-carboxylate]	< 0.1	< 25
CC[C@H]1CC[C@H](OC(=O)O[C@]2(C(=O)OCF)[C@H](C)C[C@H]3[C@@H]4C[C@H](F)C5=CC(=O)C=C[C@]5(C)[C@@]4(F)[C@@H](O)C[C@@]32C)CC1 (relative stereo) [Example 37, Fluoromethyl(6α,11β,16α,17α)-17-({[(trans-4-ethylcyclohexyl)oxy]carbonyl}oxy)-6,9-difluoro-11-hydroxy-16-methyl-3-oxoandrosta-1,4-diene-17-carboxylate]	–	< 25
C[C@@H]1C[C@H](C)C[C@H](OC(=O)O[C@]2(C(=O)OCF)[C@H](C)C[C@H]3[C@@H]4C[C@H](F)C5=CC(=O)C=C[C@]5(C)[C@@]4(F)[C@@H](O)C[C@@]32C)C1 [Example 17, Fluoromethyl(6α,11β,16α,17α)-17-[({[(1S,3R,5S)-3,5-dimethylcyclohexyl]oxy}carbonyl)oxy]-6,9-difluoro-11-hydroxy-16-methyl-3-oxoandrosta-1,4-diene-17-carboxylate]	–	< 25
CC(OC(=O)O[C@]1(C(=O)OCF)[C@H](C)C[C@H]2[C@@H]3C[C@H](F)C4=CC(=O)C=C[C@]4(C)[C@@]3(F)[C@@H](O)C[C@@]21C)C(C)(C)C (single isomer, unassigned) [Example 23A, Fluoromethyl(6α,11β,16α,17α)-6,9-difluoro-11-hydroxy-16-methyl-3-oxo-17-({[(1,2,2-trimethylpropyl)oxy]carbonyl}oxy)androsta-14-diene-17-carboxylate]	< 0.1	–
C[C@@H]1C[C@H]2[C@@H]3C[C@H](F)C4=CC(=O)C=C[C@]4(C)[C@@]3(F)[C@@H](O)C[C@]2(C)[C@@]1(OC(=O)OCC1C(C)(C)C1(C)C)C(=O)OCF [Example 24, Fluoromethyl(6α,11β,16α,17α)-6,9-difluoro-11-hydroxy-16-methyl-3-oxo-17-[({[(2,2,3,3-tetramethylcyclopropyl)methyl]oxy}carbonyl)oxy]androsta-1,4-diene-17-carboxylate]	–	< 25
